Measured values taken from publication PMC5630390, “7-ketocholesterol and 27-hydroxycholesterol decreased doxorubicin sensitivity in breast cancer cells: estrogenic activity and mTOR pathway” (Oncotarget, 2017).

Target: T1, ERα (Homo sapiens, UniProt P03372)
T1 construct: gene ESR1; recombinant human ERα expressed in yeast with a LacZ reporter construct
T1 sequence (P03372 1-595): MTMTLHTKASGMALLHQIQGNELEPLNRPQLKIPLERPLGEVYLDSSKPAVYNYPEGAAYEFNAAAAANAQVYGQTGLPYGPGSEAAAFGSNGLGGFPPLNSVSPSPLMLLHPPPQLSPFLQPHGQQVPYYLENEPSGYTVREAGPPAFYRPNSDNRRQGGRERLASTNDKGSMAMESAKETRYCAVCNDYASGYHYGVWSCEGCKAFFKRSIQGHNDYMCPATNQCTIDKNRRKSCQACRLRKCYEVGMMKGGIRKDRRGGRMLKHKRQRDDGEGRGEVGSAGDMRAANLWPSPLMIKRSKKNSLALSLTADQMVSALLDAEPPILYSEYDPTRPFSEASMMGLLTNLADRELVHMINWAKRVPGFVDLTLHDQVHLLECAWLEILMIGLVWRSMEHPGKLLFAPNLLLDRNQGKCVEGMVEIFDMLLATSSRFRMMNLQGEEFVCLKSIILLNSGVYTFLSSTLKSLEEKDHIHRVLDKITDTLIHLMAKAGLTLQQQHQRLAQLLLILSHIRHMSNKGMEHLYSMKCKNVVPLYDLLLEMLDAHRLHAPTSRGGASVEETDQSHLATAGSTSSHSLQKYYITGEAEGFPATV
Assay: yeast ER reporter (YES) assay, agonist mode, […] h; weak, […] stimulation at […]
Format: cell-based

In the case of `CC(C)CCC[C@@H](C)[C@H]1CC[C@H]2[C@@H]3C(=O)C=C4C[C@@H](O)CC[C@]4(C)[C@H]3CC[C@]12C` [7-KC, 7-ketocholesterol], the activation at 50 µM is reported as 14%.
